Assay results published in patent publication US11679107B2 (Eisai R&D Management Co., Ltd., priority 2018, dated 2023).
Read-outs that look alike come from different tables or passages of the source.

Columns and labels:
[1] = test system: NCI-H1568 cells (high MCL1); assay: Cell proliferation and viability, CellTiter-Glo, 72 hours; assay type: cell-based; conditions: for GI50: geometric mean
Summary of the method: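 Cells grown in RPMI-1640 with 10% FBS (Panc line with added insulin and FBS to 15%) were exposed to an 11-point half-log dilution series, typically 10 μM-100 pM, at 0.1% final DMSO. After incubation at 37° C, 5% CO2, ATP content was measured by luminescence and normalized to a time-zero plate and DMSO wells.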

[2] = test system: Ad2 variant pre-mRNAs spliced in HeLa S3 nuclear extracts; assay: In vitro splicing assay (IVS), RT-qPCR of spliced product; assay type: biochemical; conditions: for IC50: geometric mean; for Ratio Ad2.1/2.2: ratio of IVS IC50 Ad2.1 to Ad2.2
Summary of the method: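 Ad2 variant pre-mRNA (2 ng) with FTZΔi control RNA in HeLa S3 nuclear extract (8 μg) was pre-incubated with compound or DMSO for 15 min at 30 °C. Splicing ran 90 min at 30 °C after adding 0.5 mM ATP, creatine phosphate and MgCl2. Spliced product was quantified by TaqMan RT-qPCR, normalized to DMSO, and curve-fitted.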

SF3b complexes = target: T1, SF3b complexes (Homo sapiens, UniProt O75533+Q7RTV0); assay: Scintillation proximity assay (SPA) with [3H]-labelled pladienolide probe; assay type: binding; conditions: SF3B1 (WT); geometric mean; read-out: SPA-ATS GMean IC50 (nM) SF3B1 (WT)
T1 construct: endogenous in cells; host or cells: Nuclear extracts; A HeLa S3 extract preparation is described for the in vitro splicing assay
Summary of the method: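 SF3b complexes captured from nuclear extracts on anti-SF3B1 antibody SPA beads; test compounds pre-incubated 30 min before 2.5 nM [3H]-pladienolide probe added, then 30 min incubation. Bound probe read by scintillation; values from non-linear regression of concentration–response curves.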

[3] = NCI-H1568, read-out: CTGlo-ATS GMean GI50 (nM) 72 h NCIH1568.1, NCIH1568.1 cells, 72 h
[4] = NCIH1568.1 cells, 72 h, −100% cidal, 0% static, 100% maximal growth
[5] = Ad2.1 pre-mRNA substrate, read-out: qPCR-IVS-ATS GMean IC50 (nM) Ad2.1
[6] = Ad2.2 pre-mRNA substrate, read-out: qPCR-IVS-ATS GMean IC50 (nM) Ad2.2
[7] = NCI-H1568, 72 h, read-out: CTGlo-ATS GMean GI50 (nM) 72 h NCIH1568.1, NCIH1568.1 cells, 72 h
[8] = 72 h, NCIH1568.1, -100% = cidal, 0% = static, 100% = uninhibited growth
[9] = NCI-H1568, read-out: CTGlo-ATS GMean GI50 (nM) 72 h NCIH1568.1, 72 h, NCIH1568.1

SMILES | GI50 [1, 3] | CTGlo-ATS Mean MinResponse % 72 h NCIH1568.1 [1, 4] | IC50 [2, 5] | IC50 [2, 6] | IC50 (SF3b complexes) | GI50 [1, 7] | CTGlo-ATS Mean MinResponse % 72 h NCIH1568.1 [1, 8] | GI50 [1, 9] | Ratio Ad2.1/2.2 [2] | GI50 ([1]; NCI-H1568, 72 h, read-out: CTGlo-ATS GMean GI50 (nM) 72 h NCIH1568.1, 72 h, NCIH1568.1)
C/C(=C\c1cc(F)cc(N(C)C2CCN(C(=O)C(F)(F)F)CC2)c1)[C@H]1OC(=O)C[C@H](O)CC[C@H](C)[C@@H](OC(=O)N2CCN(C)CC2)/C=C/[C@@H]1C [Compound 181] | 9.74 nM | −85.226% | 19.7 nM | 19.2 nM | 8.2 nM | – | – | – | – | –
C/C(=C\c1cc(F)c2nnn([C@H]3CCCOC3)c2c1)[C@H]1OC(=O)C[C@H](O)CC[C@H](C)[C@@H](OC(=O)N2CCN(C)CC2)/C=C/[C@@H]1C [Compound 162] | 1.47 nM | −75.943% | 9.29 nM | 7.4 nM | 1.08 nM | – | – | – | – | –
CC(=O)N1CCC(CN(C)c2cc(F)cc(/C=C(\C)[C@H]3OC(=O)C[C@H](O)CC[C@H](C)[C@@H](OC(=O)N4CCN(C)CC4)/C=C/[C@@H]3C)c2)CC1 [Compound 186] | – | −70.969% | 41.8 nM | 17.4 nM | 12.6 nM | 14.5 nM | – | – | – | –
CCCS(=O)(=O)N1CCC(N(C)c2cc(F)cc(/C=C(\C)[C@H]3OC(=O)C[C@H](O)CC[C@H](C)[C@@H](OC(=O)N4CCN(C)CC4)/C=C/[C@@H]3C)c2)CC1 [Compound 182] | – | −69.521% | 208 nM | 40.1 nM | 86.4 nM | 23.4 nM | – | – | – | –
C/C(=C\c1cc(F)c2nnn([C@@H]3CCCOC3)c2c1)[C@H]1OC(=O)C[C@H](O)CC[C@H](C)[C@@H](OC(=O)N2CCN(C)CC2)/C=C/[C@@H]1C [Compound 161] | 0.772 nM | −85.783% | 8.5 nM | 6.31 nM | 2.51 nM | – | – | – | – | –
COCCn1nnc2c(F)cc(/C=C(\C)[C@H]3OC(=O)C[C@H](O)CC[C@H](C)[C@@H](OC(=O)N4CCN(C)CC4)/C=C/[C@@H]3C)cc21 [Compound 159] | 3.45 nM | −65.047% | 88.3 nM | 10.2 nM | 1.84 nM | – | – | – | – | –
C/C(=C\c1cc(F)cc(N2CCN(C(=O)[C@@H](C)O)CC2)c1)[C@H]1OC(=O)C[C@H](O)CC[C@H](C)[C@@H](OC(=O)N2CCN(C)CC2)/C=C/[C@@H]1C [Compound 81] | 2.18 nM | −83.963% | 9.07 nM | 4.95 nM | 2.59 nM | – | – | – | – | –
COCC(=O)N1CCC(N(C)c2cc(F)cc(/C=C(\C)[C@H]3OC(=O)C[C@H](O)CC[C@H](C)[C@@H](OC(=O)N4CCN(C)CC4)/C=C/[C@@H]3C)c2)CC1 [Compound 179] | 8.7 nM | −82.684% | 31.4 nM | 14.2 nM | 6.15 nM | – | – | – | – | –
C/C(=C\c1cc(F)cc(OC2CCN(S(C)(=O)=O)CC2)c1)[C@H]1OC(=O)C[C@H](O)CC[C@H](C)[C@@H](OC(=O)N2CCN(C)CC2)/C=C/[C@@H]1C [Compound 194] | 6.73 nM | −75.631% | 30.1 nM | 25.9 nM | 10.7 nM | – | – | – | – | –
C/C(=C\c1cc(F)cc(N(C)C2CCN(S(=O)(=O)C3CCCC3)CC2)c1)[C@H]1OC(=O)C[C@H](O)CC[C@H](C)[C@@H](OC(=O)N2CCN(C)CC2)/C=C/[C@@H]1C [Compound 183] | – | −66.270% | 713 nM | 20.3 nM | 66.3 nM | 53.6 nM | – | – | – | –
COc1ccc(CNC(=O)O[C@H]2/C=C/C(C)C(/C(C)=C/c3cc(F)cc(N4CCN(C(=O)Cn5cccn5)CC4)c3)OC(=O)CC(O)CC[C@@H]2C)cc1 (stereo in doubt) [Compound 226, [(2R,3R,4E,6R,7S,10S)-2-[(E)-1-[3-fluoro-5-[4-(2-pyrazol-1-ylacetyl)piperazin-1-yl]phenyl]prop-1-en-2-yl]-10-hydroxy-3,7-dimethyl-12-oxo-1-oxacyclododec-4-en-6-yl] N-[(4-methoxyphenyl)methyl]carbamate] | – | – | 8.74 nM | 102 nM | 1.17 nM | – | −64.963% | 34.7 nM | 0.086 | –
COCC(=O)N[C@H]1CCN(c2cc(F)cc(/C=C(\C)[C@H]3OC(=O)CC(O)CCC(C)[C@@H](OC(=O)N4CCN(C)CC4)/C=C/[C@@H]3C)c2)C1 (stereo in doubt) [Compound 218, [(2S,3S,4E,6R,7R,10S)-2-[(E)-1-[3-fluoro-5-[(3S)-3-[(2-methoxyacetyl)amino]pyrrolidin-1-yl]phenyl]prop-1-en-2-yl]-10-hydroxy-3,7-dimethyl-12-oxo-1-oxacyclododec-4-en-6-yl] 4-methylpiperazine-1-carboxylate] | – | – | 30.5 nM | 5.62 nM | 2.79 nM | – | −75.420% | 6.2 nM | 5.425 | –
C/C(=C\c1cc(F)cc(N2CCN(C(=O)C3(C)COC3)CC2)c1)[C@H]1OC(=O)C[C@H](O)CC[C@H](C)[C@@H](OC(=O)N2CCN(C)CC2)/C=C/[C@@H]1C [Compound 154] | 1.85 nM | −85.459% | 20 nM | 8.72 nM | 3.75 nM | – | – | – | – | –
CC(=O)N1CCC(n2cnc3c(F)cc(/C=C(\C)[C@H]4OC(=O)C[C@H](O)CC[C@H](C)[C@@H](OC(=O)N5CCN(C)CC5)/C=C/[C@@H]4C)cc32)CC1 [Compound 146] | – | −88.975% | 11.1 nM | 12.7 nM | 22.7 nM | 2.79 nM | – | – | – | –
C/C(=C\c1cc(F)cc(N2CCN(C(=O)Cn3cccn3)CC2)c1)[C@H]1OC(=O)C[C@H](O)CC[C@H](C)[C@@H](OC(=O)N2CCN(c3ccncc3)CC2)/C=C/[C@@H]1C [Compound 237, [(2S,3S,4E,6R,7S,10R)-2-[(E)-1-[3-fluoro-5-[4-(2-pyrazol-1-ylacetyl)piperazin-1-yl]phenyl]prop-1-en-2-yl]-10-hydroxy-3,7-dimethyl-12-oxo-1-oxacyclododec-4-en-6-yl] 4-pyridin-4-ylpiperazine-1-carboxylate] | – | – | 18.6 nM | 9.33 nM | 8.37 nM | – | −78.619% | – | 1.989 | 12 nM
C/C(=C\c1cc(F)c2nnn(C3CCS(=O)(=O)CC3)c2c1)[C@H]1OC(=O)C[C@H](O)CC[C@H](C)[C@@H](OC(=O)N2CCN(C)CC2)/C=C/[C@@H]1C [Compound 158] | 6.57 nM | −87.167% | 18.9 nM | 18.2 nM | 13.9 nM | – | – | – | – | –
C/C(=C\c1cc(F)cc(N2CCN(C(=O)Cn3cccn3)CC2)c1)[C@H]1OC(=O)C[C@H](O)CC[C@H](C)[C@@H](OC(=O)N2CCN(C)C(C)(C)C2)/C=C/[C@@H]1C [Compound 232, [(2S,3S,4E,6R,7S,10R)-2-[(E)-1-[3-fluoro-5-[4-(2-pyrazol-1-ylacetyl)piperazin-1-yl]phenyl]prop-1-en-2-yl]-10-hydroxy-3,7-dimethyl-12-oxo-1-oxacyclododec-4-en-6-yl] 3,3,4-trimethylpiperazine-1-carboxylate] | – | – | 15.3 nM | 9.5 nM | 5.01 nM | – | −78.974% | 4.67 nM | 1.613 | –
